The values that follow come from US5516775A, “Further use of pyrimidine derivatives” (Ciba-Geigy Corporation, priority 1992, dated 1996).

By IC50 is commonly meant the concentration that gives 50% inhibition.

The target in assay [1] is Protein kinase C from pig brain. Nature of the assay: Determination of the inhibitory action on protein kinase C. The class given is biochemical. The conditions noted are these: method of Fabbro et al., read-out: IC50, inhibition of protein kinase C. The procedure:
Protein kinase C from pig brain is used to determine the inhibitory action on protein kinase C. The inhibitory action of the compounds of formula I on protein kinase C is determined by the method of D. Fabbro et al, as described in Example 2. […] 0.1 to 30 μmol/liter.
Protein kinase C from pig brain purified in accordance with the procedure described by T. Uchida and C. R. Filbum in J. Biol. Chem. 259, 12311-4 (1984) is used to determine the inhibitory action on protein kinase C. The inhibitory action of the compounds of formula I on protein kinase C is determined by the method of D. Fabro et al., Arch. Biochem. Biophys. 239, 102-111 (1985). The following IC50 values are obtained in this assay for the compounds of formula I: […]

Assay [2] deals with Human T24 bladder carcinoma cells. Nature of the assay: Inhibition of the growth of human T24 bladder carcinoma cells. The format is cell-based. As to conditions: 120 h, 5 days incubation, methylene blue staining, OD 665 nm. The procedure: In this assay, the inhibitory action of compounds of formula I on the growth of human T24 bladder carcinoma cells is determined. The IC50 values obtained for the compounds of formula I are from c. 1 to 10 μmol/liter.
Human T24 bladder carcinoma cells are incubated in "Eagle's minimal essential medium", to which 5% (v/v) foetal calf serum has been added, in a humidified incubator at 37° C. and 5 percent by volume CO2 in air. The carcinoma cells (1000-1500) are inoculated in 96-well microtitre plates and incubated overnight under the stated conditions. The test compound is added in serial dilutions on day 1. The plates are incubated for 5 days under the stated conditions. During this time the control cultures undergo at least 4 cell divisions. After incubation, the cells are fixed with a 3.3% (g/v) aqueous solution of glutaraldehyde, washed with water and stained with a 0.05% (weight/volume) aqueous solution of methylene blue. After washing, the stain is eluted with 3% (g/v) aqueous hydrochloric acid. Afterwards, the optical density (OD) per well, which is directly proportional to the number of cells, is measured with a photometer (Titertek multiskan) at 665 nm. The IC50 values are computed by a computer system, using the formula [formula] The IC50 values are defined as that active compound concentration at which the number of cells per well at the end of the incubation period is only 50% of the number of cells in the control cultures. The following IC50 values are obtained in this assay for the compounds of formula I: […]

Assay [3] has as its system human T24 bladder carcinoma. Nature of the assay: Antitumour activity in mice (T24 bladder carcinoma transplant). The format is in vivo, female Balb/c nude mice. As to conditions: once daily for 15 days, measured 24 hours after last administration. The procedure: In the assay described in Example 3, the compounds of formula I, when administered perorally or intraperitoneally, reduce tumour volume to about 35-70% of tumour volume in control animals treated with placebo.
On day 0 a c. 25 mg piece of human T24 bladder carcinoma is transplanted subcutaneously using Trokar under operable "forene" narcosis on female Balb/c nude mice (Balb/c(Balb/c nu/nu, Bomholdgaard, Denmark; six mice per group). On day 6 after the tumour transplantation the average tumour volume is 120-140 mm^3 and treatment is commenced. The treatment consists in administering perorally or intraperitoneally once daily over 15 successive days, i.e. altogether 15 times, 25 ml/kg of the following formulation. This formulation is prepared as follows: 16 mg of a compound of formula I are dissolved in 0.4 ml of dimethyl sulfoxide (100% ). Then 0.05 ml of Tween 80 is added to this solution and the batch is mixed. Then 7.6 ml of a 0.9% aqueous solution of sodium chloride are added and the batch is thoroughly mixed. This formulation is prepared fresh daily. The control animals receive a placebo. The placebo is the same formulation without compound of formula I.
24 hours after the last administration, the tumour volume is measured and the ratio [%] of the tumour volume T/C is determined in the treated animals (T) and the control animals treated with placebo (C).

Turning to `c1cncc(-c2ccnc(Nc3cccc(-n4ccnc4)c3)n2)c1` [compound A, N-(3-1H-imidazol-1-ylphenyl)-4-(3-pyridyl)-2-pyrimidinamine], the half-maximal inhibitory concentration (IC50) in assay [1] came to 8.8 µM; in assay [2], 2.5 µM.

As to `FC(F)(F)c1cccc(Nc2nccc(-c3cccnc3)n2)c1` [compound B, N-(3-trifluoromethylphenyl)-4-(3-pyridyl)-2-pyrimidinamine], the “ratio T/C of tumour volume” value is given as 54% in assay [3] (intraperitoneal, 25 mg); 46% in assay [3] (intraperitoneal, 50 mg); 68% in assay [3] (peroral, 25 mg); 53% in assay [3] (peroral, 50 mg). The half-inhibitory concentration (IC50) in assay [1] turned out to be 2.5 µM; in assay [2], 7.4 µM.

On to `Clc1cccc(Nc2nccc(-c3cccnc3)n2)c1` [compound C, N-(3-chlorophenyl)-4-(3-pyridyl)-2-pyrimidinamine], for which the results for the IC50 in assay [1] and in assay [2] were 6.3 µM and 5.2 µM, respectively.

For `Nc1cccc(Nc2nccc(-c3cccnc3)n2)c1` [compound D, N-(3-aminophenyl)-4-(3-pyridyl)-2-pyrimidinamine], the IC50 in assay [1] was 28 µM; in assay [2] it was 7.2 µM.

Consider `COC(=O)c1cccc(Nc2nccc(-c3cccnc3)n2)c1` [compound E, N-(3-methoxycarbonylphenyl)-4-(3-pyridyl)-2-pyrimidinamine], for which the IC50 in assay [1] was found to be 26 µM.

With `NCCCNC(=O)c1cccc(Nc2nccc(-c3cccnc3)n2)c1` [compound F, N-(3-[3-aminopropylaminocarbonyl]phenyl)-4-(3-pyridyl)-2-pyrimidinamine], in assay [1], the IC50 stood at 28 µM.
